Our source for the IC50, Ka and binding values is publication PMC9122626 (2020).

The test system of assay [1] is human telomeric G4 DNA, dAGGG(TTAGGG)3 (DNA, G4) AGGGTTAGGGTTAGGGTTAGGG
The experiment in a line: thiazole orange displacement (fluorescence). The note with it: 298 K; thiazole orange displaced; 0.25 μM G4, 0.50 μM TO.

The test system is the same in assay [2]. Nature of the assay: ITC. To be noted: Na+ 100 mM; 298.15 K; 64 μM DNA in cell, 700 μM peptide in syringe.
For assay [3] the test system is unchanged. The experiment in a line: CD titration. To be noted: Na+; aqueous buffer.
Assay [4] shares this test system. The experiment in a line: intrinsic fluorescence titration. The note with it: 15 μM peptide; 0 to 18.16 μM G4; room temperature.
Assay [5] has the same test system. Nature of the assay: time-resolved fluorescence (TCSPC). To be noted: 100 mM Na+; 10 mM Tris, pH 7.3, 25 °C; 5.5 μM peptide; 0 to 10.5 μM G4.
The test system is the same in assay [6]. Nature of the assay: EMSA. The note with it: 30 μM G4; room temperature; 15-120 μM peptide.
For assay [7], the system named is ds26 (DNA, duplex) CAATCGGATCGAATTCGATCCGATTG
Nature of the assay: ITC. The note with it: Na+ 100 mM.

For the compound `N[C@@H](Cc1ccc(O)cc1)C(=O)N[C@@H](CCC(=O)N[C@@H](CCC(=O)O)C(=O)O)C(=O)N[C@@H](CCC(=O)O)C(=O)O` (racemic), the IC50 in assay [1] was ~ 8.4 μM. For the same compound, the values for the Ka in assay [2] and in assay [7] were 1.1e+06 M⁻¹ and 9600 M⁻¹, respectively. Also, the binding result in assay [3], in assay [4], in assay [5] and in assay [6] was “yes” in each case.
